“Also recorded” adds a separate entry of the source.
Assays:
[1] = test system: srfA promoter in B. subtilis PS-216 (∆comQ, PsrfAA-yfp); experiment: srfA promoter response (Yfp fluorescence per cell) to exogenously added ComX; type: cell-based, Bacillus subtilis
Protocol: In our model, the expression level of the srfA operon serves as a measure for the response (RM) to the signal molecule SM, represented by ComX. To study how RM depends on SM we evaluated promoter activity of srfA in the B. subtilis PS-216 (∆comQ, PsrfAA-yfp), which carries the markerless deletion of comQ[42] and is therefore signal-deficient. […] The response to SM was sigmoidal. […] We have therefore taken the 4 hours response curve (Fig. 4a) as a reference for further communication system analysis. The sigmoidal functions can typically describe the relationship between transcription factors and promoter activities, and can be modeled by the Hill equation[43],[44]. […] This agrees with the research showing that two molecules of the ComA homodimer cooperatively bind to the two promoter regions located upstream of the RNAP binding sites of srfA[13],[20],[45].
To quantify a response (RM) to different signal molecule (SM) concentrations at the population level we used the signal deficient B. subtilis PS-216 (∆comQ PsrfAA-yfp), which carries the comQ marker-less deletion and the srfA promoter tagged with the Yfp fluorescent reporter (Supplementary Table 1).
(final concentration of 50 µg mL^–1). […] The plate was placed on a microtiter plate shaker (1 mm orbit, 1100 rpm) that was positioned in the humidified chamber to eliminate sample evaporation. To improve the homogeneity of the conditions (airflow, temperature) on the microtiter plate the microtiter plate lids were elevated by 2 mm relative to the surface of microtiter plate. The plates were incubated at 37 °C for 3, 4, or 6 h. The cells were then re-suspended and fixed in 200 µL of 1% agarose containing DAPI dye (6 µg mL^−1).
For quantitative analysis we used laser confocal fluorescence microscopy (Zeiss, LSM 800). The images were acquired by two laser channels—488 nm laser for acquiring fluorescence from Yfp protein and 405 nm laser to acquire fluorescence from DAPI dye. The acquired images were 1024 × 1024 pixels in size with 16-bit color depth at 20× optical magnification (objective 20×/NA 0.4, Zeiss) and were analyzed with Fiji-ImageJ[59] custom script. Four images per well of microtiter plate were taken, each image contained about 350 cells. The measure for amount of Yfp on image was integrated density i.e., the product of mean fluorescence intensity and area taken by the cells. The response per cell was quantified as the ratio of image integrated density by the number of cells obtained from DAPI image.
The analytical form of the model equation for response per cell to the signal during bacterial growth in the fermenter batch system (Eq. 3, eq S11) was derived and fitted to the experimental data by the help of Wolfram Mathematica 11.0 (Wolfram Research, Inc.). […]

[2] = test system: ComX biosensor BD2876 (ΔcomQ, srfA-lacZ); experiment: β-galactosidase response of ComX biosensor BD2876 to spent medium or added ComX; type: cell-based, Bacillus subtilis; conditions: ≈1 nM ComX in PS-216 ΔcomQ spent medium (positive control)
Protocol: Overnight cultures were grown in competence medium[57] (CM) supplemented with L-histidine, L-leucine, and L-methionine (50 μg mL^–1). Prior to fermenter inoculation, the cells were washed twice by replacing the spent medium of overnight culture with SS buffer[58]. Cell suspension was inoculated into 1.2 L of fresh CM (2% inoculum). Incubation was performed at 37 °C with mixing at 700 rpm and the closed off air flow. In instances where we tested O2 impact on SM concentration the medium was saturated with O2 by ensuring a supply of compressed air at a flow rate of 1 L min^-1. The dissolved O2 was measured using the O2 polarized electrode InPro 6820 (Mettler Toledo). No pH correction was performed or anti foaming agents were added.
control) ▲,,, or supplemented with the wt strain spent medium 10 times diluted by spent medium of the
ΔcomQ strain (experimental) ▲,,; The spent medium of the PS-216 (ΔcomQ) strain was obtained in the
parallel fermenter batch system. The strains PS-216 wt and PS-216 (ΔcomQ) were grown in the fermenter batch
system where oxygen supply was limited (a) or supplied to the saturation (b).
to 3 independent experiments.

[3] = Aging of purified ComX stock solution followed by HPLC; type: physicochemical; conditions: 4 °C
Protocol: spectrometer (Bruker, Germany). FlexControl 3.3 software (Bruker, Germany) was used to control the instrument, FlexAnalysis 3.3 to process data and to calibrate spectra (Bruker, […]
two-sided), for about 2-fold compared to the original medium (Fig. S6b ). To further increase […]
recombinant proteins in E. coli and gained altogether significant 5-fold increase (P < 0.0001, t-value= 9.6, two- sided) compared to the original medium. The overnight LB E. coli ED367 culture, supplemented with 100 µg/mL of Amp, grown in 37 °C (200 rpm), was transferred to fresh TB medium (1 % inoculum) supplemented by 20 mM MgCl2 and 100 µg/mL of Amp.
After about 2 h and 45 min of incubation at 37 °C (200 rpm) when culture reached OD650 of […]., the spent growth medium was removed by culture centrifugation (5000 g, 5 min, room temperature). […]
β-galactosidase assay. […] To improve the sensitivity of the assay, the plates were then warmed to 30 °C, 25 μL ortho- nitrophenyl-β-galactoside (ONPG) substrate (8 mg/mL) was added and the absorbance (420 nm) in 1 min intervals was read using a Multiscan Spectrum […]
Supplementary Figure 5: Maximum normalized response measured as the srfA promoter activity of B. subtilis PS-216 (∆comQ, PsrfAA -yfp) (no signal production) to the exogenously added signal molecule, SM, (ComX). […]
SS buffer at 4 °C as measured by HPLC. […]

B. subtilis proteases [4] = experiment: Biological degradation of ComX in B. subtilis spent medium; type: in vitro ADME, Bacillus subtilis; conditions: spent CM medium max 7 h old; assumption from low protease content
Protocol: cells per unit volume (cell density), N(t) , and the time cells were producing the molecule, t . The molecule of interest can potentially get degraded by the degradation rate γ(t ). In the differential form and as a function of time one can express concentration of signal molecule SM(t) as:
dddddd (tt ) = PPdddd (tt ) NN (tt ) − γγ (tt )SSSS (tt ) eq S1 […]
spent medium obtained after 24 h of incubation with PS -216 wt (when the proteases accumulated in enough high concentration). In our case, however, the spent media were maxi mal 7 h old and the protease content of spent CM growth medium used in current study […]
(Supplementary Fig. 7). Therefore , we assumed that biological degradation of SM (ComX) is negligible under conditions in this study. Under the buffered conditions (as in CM growth […]
experiments where we applied our model. Therefore, in our modeling we assumed that degradation rate of SM is negligible (γ(t) ≈ 0) and the eq S 1 can be simplified to: […]
Normalized fluorescence intensity per cell Normalized fluorescence intensity per cell
Supplementary Figure 8: The second replicate (for first replicate, see Fig 5g,h) of the distribution of gene expression measured by single cell fluorescence microscopy. Gene expression level was measured as Na-fluoresceinate standard normalized mean fluorescence intensity per cells expressing comQ -yfp (a) and srfA -cfp (b). […]

B. subtilis proteases [5] = conditions: 24 h MSgg spent medium of PS-216 wt; 24 h incubation; ref Spacapan et al.22; cited from earlier work
Source text: page 5: cells per unit volume (cell density), N(t) , and the time cells were producing the molecule, t . The molecule of interest can potentially get degraded by the degradation rate γ(t ). […] The protease content of CM growth medium used in t ...

ADPITRQWGD [ComX, isoprenylated (farnesylated) quorum sensing signal peptide of B. subtilis, HPLC purified from E. coli ED367]
ComX concentration at which the highest response value is reached ([1]; 37 °C, CM medium, n = 4): around 10 nM | Shape of response to ComX ([1]; 4 h incubation, exogenously added ComX): sigmoidal | Lower limit response (LLR), critical ComX concentration required to induce quantifiable response ([1]; first significantly positive response (lower 95% confidence level > 0), 37 °C, CM medium): 0.2 to 0.5 nM | Km ([1]; read-out: Km, ComX concentration at which half of the maximum response is achieved, Hill fit (Eq. 2) of srfA promoter Yfp fluorescence per cell, CM medium, 37 °C, 3, 4 or 6 h incubation, BSA added, n = 4): 3 to 5 nM | Biosensor BD2876 response to added purified ComX [2]: strongly responded | Half-life time of ComX ([3]; purified ComX stock (typically 200 nM) in SS buffer with BSA 50 μg/mL, n = 8 independent experiments): about 50 days | Chemical stability ([3]; purified ComX, SS buffer): strong chemical stability | Biological degradation in spent CM medium (B. subtilis proteases [4]): negligible | Degradation in MSgg spent medium (B. subtilis proteases [5]): significant level only after incubating ComX for 24 h; also recorded: can degrade
